These results are taken from US8916527B2, “Antibiotic macrocycle compounds and methods of manufacture and use thereof” (Optimer Pharmaceuticals, Inc., priority 2007, dated 2014).

Like-named read-outs stand apart in the source and are kept apart here.

Data set [1] deals with Bifidiobacterium longum, ATCC 15707. The data set is described as follows: MIC, agar dilution method. The class given is cell-based. Conditions: Table 1 gram positive GI flora. For orientation: In agar dilution the substance is mixed into plates at graded concentrations.
In data set [2] the test system is Clostridium difficile, ATCC 43255. Kind of data set: MIC, agar dilution method. The class given is cell-based. Conditions: Clostridioides difficile, ATCC43255. The procedure: (§1) Agar Dilution Method: (1)
(§2) This method was used for anaerobic organisms (Bacteroides, Clostridium, Bifidiobacteria, Prevotella, Fusobacterium, Peptococcus, Peptostreptococcus, Veillonella) and microaerophilic Lactobacillus spp, all of which were purchased form American Type Culture Collection (ATCC):
(§3) 1. Two fold dilutions of compounds were made in Brucella agar supplemented with hemin, vitamin K and 5% laked sheep blood to achieve a final concentration range from 0.016 μg/mL to 16 μg/mL.
(§4) 3. Plates were incubated in an anaerobic chamber at 35° C. for 48 hours. For the Lactobacillus strains, Mueller Hinton Agar and an incubation atmosphere of 5% CO2 were used.
(§5) 4. The lowest concentration of an antibiotic showing no growth or marked reduction in growth was read as the MIC.

Data set [3] has as its system Clostridium difficile, ATCC 700057. The data set is described as follows: MIC, agar dilution method. The data set is classed as cell-based. Conditions: Clostridioides difficile, ATCC700057. As for the experimental part:
as §1, §2, §3, §4, §5

Data set [4] deals with Clostridium perfringens, ATCC 13124. The data set is described as follows: microbe, parasite or virus in culture. The class given is cell-based. Conditions: ATCC13124.
Data set [5] concerns Finegoldia (formerly Peptococcus) magna, ATCC 29328. The data set is described as follows: MIC, agar dilution method. The data set is classed as cell-based. Conditions: Finegoldia magna ATCC 29328.
In data set [6] the test system is Lactobacillus. casei, ATCC 393. Kind of data set: MIC, agar dilution method. The class given is cell-based. Conditions: Lacticaseibacillus casei, ATCC393.
In data set [7] the test system is Lactobacillus acidophilus, ATCC 4356. The data set is described as follows: MIC, agar dilution method. The class given is cell-based. The conditions noted are these: ATCC4356.
Data set [8] has as its system Lactobacillus rhamnosus, ATCC 7496. Kind of data set: MIC, agar dilution method. The class given is cell-based.
Data set [9] deals with Micromonas (formerly Peptostreptococcus) micros, ATCC 33270. Kind of data set: MIC, agar dilution method. Conditions: Parvimonas micra, ATCC33270; Micromonas micros ATCC 33270. The class given is cell-based.
Data set [10] relates to Peptoniphilus (formerly Peptococcus) asaccharolyticus, ATCC 29743. The data set is described as follows: MIC, agar dilution method. The data set is classed as cell-based. The conditions noted are these: Peptoniphilus asaccharolyticus ATCC 29743.
The test system of data set [11] is Peptostreptococcus anaerobius, ATCC 27337. Kind of data set: MIC, agar dilution method. The data set is classed as cell-based. Conditions: ATCC27337.
For data set [12], the system named is ORG 150 B. fragilis 25285. The data set is described as follows: MIC, anaerobic panel, agar dilution method. The class given is cell-based. Conditions: Bacteroides fragilis, Table 3, read-out: MIC, panel of anaerobic bacteria.
Data set [13] relates to C. difficile ATCC strain 700057. The data set is described as follows: Effect of fecal material on in vitro activity, microbroth dilution MIC. The class given is cell-based. The conditions noted are these: for MIC: Clostridioides difficile. In general terms: Broth dilution looks for growth in wells or tubes with falling amounts of substance.
The conditions of data set [14]: in vivo, po.
The next data set is described as follows: physchem. The data set is classed as physicochemical. Conditions: water; read-out: Aqueous solubility.
Data set [15] has as its system gram positive bacteria (C. difficile, C. perfringenes, B. longum, F. magna, P. asaccharolyticus, P. anaerobius, M. micros, L. casei). The class given is cell-based.
For a further data set, the system named is S. aureus. Kind of data set: MIC profiling. The conditions noted are these: Staphylococcus aureus.
The subject of the next data set is E. faecium. The data set is described as follows: MIC profiling. The conditions noted are these: Enterococcus faecium.
The subject of data set [16] is Enterococcus faecium, ATCC 19434. The data set is described as follows: MIC, microbroth dilution method.
The test system of data set [17] is Enterococcus faecium, Vancomycin resistant clinical strain ORG#360. The data set is described as follows: MIC, microbroth dilution method.
Data set [18] deals with Enterococcus faecium, Vancomycin resistant clinical strain ORG#364. The data set is described as follows: MIC, microbroth dilution method.
For data set [19], the system named is Enterococcus faecium, Vancomycin resistant clinical strain ORG#534. Kind of data set: MIC, microbroth dilution method.
The subject of data set [20] is Staphylococcus aureus, ATCC 29213. The data set is described as follows: MIC, microbroth dilution method.
In data set [21] the test system is Staphylococcus aureus, ATCC 33591 (Methicilin resistant). Kind of data set: MIC, microbroth dilution method.
For data set [22], the system named is Staphylococcus aureus, Methicilin resistant clinical strain ORG#578. Kind of data set: MIC, microbroth dilution method.
Data set [23] deals with Staphylococcus epidennidis, clinical strain ORG#365. Kind of data set: MIC, microbroth dilution method.
Data set [24] relates to Streptococcus pneumoniae, ATCC 49619. The data set is described as follows: MIC, microbroth dilution method. The conditions noted are these: ATCC49619.
Data set [25] relates to Streptococcus pyogenes, ATCC 19615. The data set is described as follows: MIC, microbroth dilution method.
The subject of data set [26] is ORG 83 E. faecalis ATCC 29212. The data set is described as follows: MIC, aerobic panel, microbroth dilution method. Conditions: Enterococcus faecalis, ATCC29212, read-out: Aerobic Panel MIC.
Data set [27] deals with ORG 84 E. faecium ATCC 700221 VRE. Kind of data set: MIC, aerobic panel, microbroth dilution method. Conditions: Enterococcus faecium, read-out: Aerobic Panel MIC.
For data set [28], the system named is ORG 99 S. epidermidis ATCC 12228. Kind of data set: MIC, aerobic panel, microbroth dilution method. The conditions noted are these: Staphylococcus epidermidis, ATCC12228, read-out: Aerobic Panel MIC.

Consider `CCc1c(Cl)c(O)c(Cl)c(O)c1C(=O)O[C@H]1[C@H](O)[C@H](OC)[C@H](OC/C2=C\C=C\C[C@H](O)/C(C)=C/[C@H](CC)[C@@H](O[C@@H]3OC(C)(C)[C@@H](O)[C@H](O)[C@@H]3O)/C(C)=C/C(C)=C/C[C@@H]([C@@H](C)O)OC2=O)O[C@@H]1C` [Formula II], for which the MIC is 1 µg/mL in [1]; 4 µg/mL in [2]; 2 µg/mL in [3] (Clostridium difficile ATCC 700057, Table 1 gram positive GI flora, read-out: MIC); 0.5 to 1 µg/mL in [3] (ORG 830 C. difficile ATCC 700057, Table 3, read-out: MIC, panel of anaerobic bacteria); 1 µg/mL in data set [4]; 8 µg/mL in [5]. The MIC in [6] is 8 µg/mL; in [7] it was > 16 µg/mL; in data set [8] (Lacticaseibacillus rhamnosus, ATCC7496, L. rhamnosus, read-out: MIC), > 16 µg/mL; in data set [8] (Lactobacillus rhamnosus ATCC 7496), >16 µg/mL; in data set [9], 1 µg/mL; in data set [10] it was 4 µg/mL. The MIC in data set [11] was 0.25 µg/mL; in data set [12], > 16 µg/mL; in data set [13] (ATCC700057, C. difficile ATCC strain 700057, read-out: MIC in the presence of 5% fecal material), 4 µg/mL; in data set [13] (ATCC700057, Diluent Brucella broth only, C. difficile ATCC 700057, read-out: MIC), 1 µg/mL; in data set [13] (ATCC700057, Diluent Brucella broth with feces (5% fecal slurry), C. difficile ATCC 700057, read-out: MIC), 4 µg/mL; in the data set on S. aureus it was > 16 µg/mL. For the same molecule, the MIC with E. faecium is > 16 µg/mL; in [16] (ATCC19434), > 64 µg/mL; in data set [16] (ATCC19434, read-out: Aerobic Panel MIC) it was > 64 µg/mL; in data set [17], > 64 µg/mL; in data set [18], 64 µg/mL; in data set [19], > 64 µg/mL. In addition, the MIC was > 64 µg/mL in data set [20] (ATCC29213); > 64 µg/mL in data set [20] (ATCC29213 / MSSA, read-out: Aerobic Panel MIC); > 64 µg/mL in data set [21] (ATCC33591); > 64 µg/mL in data set [21] (ATCC33591 / MRSA, read-out: Aerobic Panel MIC); > 64 µg/mL in data set [22]; 64 µg/mL in data set [23]. Also, the MIC is > 64 µg/mL in data set [24]; > 64 µg/mL in [25] (ATCC19615); > 32 µg/mL in data set [25] (ATCC19615, read-out: Aerobic Panel MIC); 16 to 64 µg/mL in data set [26]; > 32 µg/mL in [27]; > 32 µg/mL in [28]. For the same molecule, the “Fold increase in MIC” value in [13] (Brucella broth with feces vs Brucella broth only, C. difficile ATCC 700057) is 4x. Further, in data set [13] (C. difficile), the “activity against C. difficile compared with vancomycin” value is listed as “as active as vancomycin”. The “fold increase in MIC values in the presence of 5% fecal material” value in data set [13] (C. difficile ATCC strain 700057) is “four fold”. Further, the “levels detected in plasma” value in data set [14] is listed as “most of which fell below the limit of quantification”. Also, the solubility (in general, the dissolved amount per volume that the medium holds) in the data set “physchem” is ~300 mg/mL. Also, the “MIC values relative to those of OPT-80” value in data set [15] was “four to sixteen fold greater”.

`CN[C@H](CC(C)C)C(=O)N[C@H]1C(=O)N[C@@H](CC(N)=O)C(=O)N[C@H]2C(=O)N[C@H]3C(=O)N[C@H](C(=O)N[C@H](C(=O)O)c4cc(O)cc(O)c4-c4cc3ccc4O)[C@H](O)c3ccc(c(Cl)c3)Oc3cc2cc(c3O[C@@H]2O[C@H](CO)[C@@H](O)[C@H](O)[C@H]2O[C@H]2C[C@](C)(N)[C@H](O)[C@H](C)O2)Oc2ccc(cc2Cl)[C@H]1O` [Vancomycin, reference compound]: in [13], the “Fold increase in MIC” value is reported as 4x and the “fold increase in MIC values in the presence of 5% fecal material” value is “four fold”. In addition, the MIC in data set [13] (ATCC700057, read-out: MIC in the presence of 5% fecal material) came to 8 µg/mL.
